The values below come from article PMC11674800, “Second-Generation Antipsychotics Induce Metabolic Disruption in Adipose Tissue-Derived Mesenchymal Stem Cells Through an aPKC-Dependent Pathway” (Cells, 2024).

Structures are written as SMILES. Numbered stars: 1 amine (or outer) side, 2 acyl side, 3 side chain; on linkers, the order of the positions; unused ones are H or OH. Bridge positions count the residues as written; N and C are the ends. Square brackets hold non-standard residues; d marks the D form. Peptide text beside a SMILES is read from it. X1 = CC(=O)NC(C(=O)OC(C(C)C)C(N[*:1])C(=O)[*:2])C(O)C(C)C; PhLac = O=C(O)[CH](O)Cc1ccccc1; NMeT = CN[CH](C(=O)O)[CH](C)O; NMeA = CN[CH](C)C(=O)O; NMeDha = C=C(NC)C(=O)O

In data set [1] the test system is ADSCs. Nature of the data set: Acidic vesicle quantification (Lysotracker). The following applies: for effect of co-treatment on acidic vesicle accumulation in clozapine-treated cells: clozapine 5 µM; for effect of co-treatment on acidic vesicle accumulation in olanzapine-treated cells / reduction of olanzapine-induced accumulation of acidic vesicles: olanzapine 5 μM; for reduction of olanzapine-induced accumulation of acidic vesicles: plus inhibitor 10 μM. Format: cell-based, human. How it is done: After treatment, the medium was removed, and the cells were stained with 50 nM Lysotracker Deep Red (Invitrogen, Waltham, MA, USA) and 5 μg/mL Hoechst 33342 (Sigma). Staining was conducted in the dark at 37 °C for 30 min. Fluorescence signals were captured using a FLoid Cell Imaging Station (Life Technology, Carlsbad, CA, USA). The ratio of Lysotracker red signal to blue nuclear signal was quantified using ImageJ software. For acidic vesicle rescue experiments, ADSCs were plated at a concentration of 10,000 cells per well in 48-well plates.

For a further data set, the system named is 3T3L1 cells. The experiment in a line: PA accumulation in cells transfected with DOCK2-Pii. Type of data set: cell-based, mouse. The following applies: olanzapine 5 μM, 16 h, plus inhibitor. How it is done: Transfection was carried out using Lipofectamine 3000 (Thermo Fisher Scientific, Waltham, MA, USA), following the manufacturer’s instructions. The cells were incubated with the plasmid for 24 h to ensure successful transfection and plasmid expression and were used for experiments 48 h post-transfection.

Another data set has as its system TFEB. Nature of the data set: TFEB nuclear localization (confocal microscopy). Type of data set: cell-based, human. The following applies: olanzapine 5 μM plus inhibitor. How it is done: (§1) For INSRβ endocytosis experiments, the cells were stimulated with 50 ng/mL insulin for 15 min. For transferrin endocytosis experiments, the cells were incubated with 25 μg/mL Transferrin Texas Red for 5 min. After treatment, the cells were washed with PBS and fixed with 4% PFA for 10 min at room temperature, followed by an additional PBS wash. The cells were then permeabilized by incubating them with cold HEPES-Triton X-100 buffer for 5 min at 4 °C. After permeabilization, the cells were incubated with primary antibodies for 30 min, followed by incubation with Alexa Fluor 488- or 546-conjugated secondary antibodies (Invitrogen, Waltham, MA, USA) and phalloidin, labeled with either Alexa Fluor 546 or 633 (Invitrogen Waltham, MA, USA) for 30 min. After incubation, coverslips were mounted on glass slides using a mounting medium. Images were acquired using a confocal microscope (Leica TCS SP8, Wetzlar, Germany) and analyzed using ImageJ (v 1.52a) software in order to quantify and analyze the fluorescence signals.

A further data set has as its system PKCζ. Nature of the data set: PKC activation (Western blot, P-PKCζ T560 immunofluorescence). Type of data set: cell-based, human. The following applies: 16 h. How it is done:
(§2) After treatments, whole-cell lysates were prepared using RIPA lysis buffer supplemented with protease inhibitors (AEBSF, aprotinin, bestatin, E-64, EDTA, leupeptin, Sigma-Aldrich, Saint Louis, MO, USA) and orthovanadate (Sigma-Aldrich, Saint Louis, MO, USA). The proteins in the lysates were collected and quantified using the Pierce BCA protein assay kit (Thermo Fisher Scientific, Waltham, MA, USA). Subsequently, the proteins were denatured by heating at 95 °C for 5 min in the presence of 2% Sodium Dodecyl Sulfate (SDS, Sigma-Aldrich, Saint Louis, MO, USA), 150 mM dithiothreitol (DTT, Sigma-Aldrich, Saint Louis, MO, USA), and 0.01% bromophenol blue (Sigma-Aldrich, Saint Louis, MO, USA). The samples were then analyzed using SDS-PAGE (SDS-Polyacrylamide Gel Electrophoresis) and Western blotting (WB).
as §1
Background: In western blotting, separated proteins are transferred to a membrane and probed.

For a further data set, the system named is Gas receptors. Also noted: method as in PMID 33152337. The following applies: acts as a suramin analog; cited from earlier work.
The subject of data set [2] is ADSCs. The following applies: 7 days; 1 to 50 μM.
Data set [3] relates to ADSCs. Nature of the data set: Vacuolization assay. The following applies: 5 μM, 4 h. Format: cell-based, human. How it is done:
After 4 h, pictures were acquired using a phase contrast microscope (DMi1, Leica, Wetzlar, Germany).

The test system of another data set is LC3B. The experiment in a line: Autophagy induction (LC3B Western blot, LAMP1/LC3B colocalization). The following applies: 16 h treatment. Format: cell-based, human. How it is done: as §2, §1
Data set [4] relates to ADSCs. The experiment in a line: Phospholipidosis assay (LipidTox Green). The following applies: 5 μM, 16 h.
Experimental: The cells were stained with 1X LipidTox Green (Thermo Fisher Scientific, Waltham, MA, USA) for 16 h to visualize lipid content. […] The cells were then washed with PBS and fixed with 4% paraformaldehyde for 15 min in the dark.

In the case of `Cn1cnc(N)c2ncnc1-2` [3-MA, 3-methyladenine], in the data set on ADSCs [1] (16 h, plus inhibitor), the “effect of co-treatment on acidic vesicle accumulation in clozapine-treated cells” value is reported as “significantly reduced” and the “effect of co-treatment on acidic vesicle accumulation in olanzapine-treated cells” value is given as “not seen”.
Consider `CC1CCc2c(cc(Br)c(F)c2Br)N1C=O` (centres unmarked) [CE3F4], for which the “effect of co-treatment on PA levels in olanzapine-treated cells” value (“effect of co-treatment on PA levels” for short) in the data set on 3T3L1 cells is recorded as “markedly reduced”. In addition, the “reduction of olanzapine-induced accumulation of acidic vesicles” value (shortened to “reduction”) with ADSCs [1] (16 h) is given as “at least 50%”.
Take `C[C@@H]1C[C@@H]([C@H](O)CC2CC(=O)NC(=O)C2)C(=O)[C@@H](C)C1` [CHX, cycloheximide]: the “effect of co-treatment on acidic vesicle accumulation (Lysotracker) in both olanzapine- and clozapine-treated cells” value in the data set on ADSCs [1] (SGAs 5 µM, 16 h, plus inhibitor) was “significant reduction”.
Turning to `O=C(NCCN1CCC(n2c(=O)[nH]c3ccccc32)CC1)c1cc2cc(F)ccc2[nH]1` [FIPI], the “effect of co-treatment on PA levels” value with 3T3L1 cells is “significantly reduced”. Further, the “effect of co-treatment on acidic vesicle accumulation in olanzapine-treated cells” value in the data set with ADSCs [1] (16 h, plus inhibitor) is “significantly reduced”.
In the case of `CN(C)CCCn1cc(C2=C(c3c[nH]c4ccccc34)C(=O)NC2=O)c2ccccc21` [Go6850], the “effect of co-treatment on acidic vesicle accumulation in clozapine-treated cells” value in the data set on ADSCs [1] (16 h, plus inhibitor) was “only partially reduced”.
On to `CN1CCN(C(=O)C2C(C(=O)O)[C@H]3CC[C@@H]2O3)CC1` (some centres unmarked) [LB100], for which, in the data set with TFEB, the “effect of co-treatment on TFEB nuclear localization induced by olanzapine” value is on record as “complete abrogation”. The “effect of co-treatment on acidic vesicle accumulation in olanzapine-treated cells” value with ADSCs [1] (16 h, plus inhibitor) was “significant reduction”.
As for `Cc1nc2sccn2c(=O)c1CCN1CCC(=C(c2ccccc2)c2ccc(F)cc2)CC1` [R59022], the “effect of co-treatment on PA levels” value with 3T3L1 cells is “did not affect”. Besides, in the data set on ADSCs [1] (16 h, plus inhibitor), the “effect of co-treatment on acidic vesicle accumulation in olanzapine-treated cells” value was “did not affect”.
Turning to `Nc1ncnc2c1ncn2C1CCCO1` (centres unmarked) [SQ22], in the data set on ADSCs [1] (16 h), the “reduction” value is reported as “at least 50%”.
Consider `C=C1C(=O)NC(C)C(=O)N(C)C(C)C(=O)NC(C(OC(=O)C(NC(C)=O)C(O)C(C)C)C(C)C)C(=O)N(C)C(C(C)OC)C(=O)OC(C)C(NC(C)=O)C(=O)OC(Cc2ccccc2)C(=O)N1C` (centres unmarked) [YM254890] (Ac-T[PhLac][NMeDha]A[NMeA][X1][NMeT](Me); ester 1-C; configuration not given here), for which, in the data set on PKCζ (olanzapine 5 μM, plus inhibitor), the “PKCζ phosphorylation in olanzapine-treated cells, co-treatment” value is “diminished”. In addition, in the data set with 3T3L1 cells, the “effect of co-treatment on PA levels” value is listed as “markedly reduced”. In the data set with ADSCs [1] (16 h, plus inhibitor), the “effect of co-treatment on acidic vesicle accumulation in olanzapine-treated cells” value is “strongest effect”. For the same compound, the “reduction” value in the data set with ADSCs [1] (16 h) is “at least 50%”. Moreover, the “concentrations blocking Gas receptors” value in the data set on Gas receptors is “below 10 μM”.
Turning to `CN1CCN(C2=Nc3cc(Cl)ccc3Nc3ccccc32)CC1` [clozapine], in the data set on PKCζ (5 μM, Western blot), the “canonical PKCs (cPKCs) and atypical PKCζ activation state” value is “activation”. Also, in the data set on ADSCs [2], the “concentrations showing significant toxicity” value is recorded as “above 25 μM”. In addition, in the data set on ADSCs [1] (0.5-10 µM, 24 h, 72 h, 7 days), the “acidic compartment accumulation (Lysotracker staining)” value was “progressive time- and dose-dependent increase”. For the same compound, the “concentrations at which acidic compartment accumulation was observed” value in the data set on ADSCs [1] (ADSCs) is listed as “below 1 µM”. Moreover, the vacuolization induction result in the data set on ADSCs [3] is “absent”. Also, in the data set on LC3B, the “colocalization of LAMP1 with LC3B” value is listed as “increased colocalization” and the “conversion of LC3B-I to LC3B-II” value was “significantly increased”.
Take `CC(C)(C)c1ccc(C(=O)CCCN2CCC(OC(c3ccccc3)c3ccccc3)CC2)cc1` [ebastine]: the vacuolization induction result in the data set with ADSCs [3] is recorded as “prominently observed”.
As to `CNCCC(Oc1ccc(C(F)(F)F)cc1)c1ccccc1` (centres unmarked) [fluoxetine], the phospholipidosis induction result with ADSCs [4] was “prominently observed”. Further, the vacuolization induction entry in the data set on ADSCs [3] is on record as “prominently observed”.
Take `Cc1ccc(C(=O)Nc2ccc(S(=O)(=O)O)c3cc(S(=O)(=O)O)cc(S(=O)(=O)O)c23)cc1NC(=O)c1cccc(NC(=O)Nc2cccc(C(=O)Nc3cc(C(=O)Nc4ccc(S(=O)(=O)O)c5cc(S(=O)(=O)O)cc(S(=O)(=O)O)c45)ccc3C)c2)c1` [suramin]: the “reduction” value with ADSCs [1] (16 h) is recorded as “at least 50%”.
